Data from ChEMBL document CHEMBL5728660, “Monosaccharide amine and 3-nitro-2-phenyl-2H-chromene based inhibitors of glucose kinases” (2021).

Experiment: enzyme-inhibition screening assay: The 16 compounds showing substantial inhibition against TcGlcK at compound concentrations of 20 μM were then examined in a confirmatory assay in which the amino sugar analogues were at a concentration of 20 μM and were tested against the assay's only coupling enzyme, G6PDH, to verify enzyme activity; the assay was performed in quadruplicate. […] These confirmed hits included representatives from all three monosaccharide scaffolds tested (i.e., D-GlcN, D-ManN, and D-GalN).

O=C(N[C@H]1C(O)O[C@H](CO)[C@@H](O)[C@@H]1O)c1ccccc1 (stereo partly specified)
IC50: 16.1 µM
